Assay [1] addresses T1, Mdm2(C464A)-luciferase fusion protein (Homo sapiens, UniProt Q00987, C464A).
T1 construct: Using full-length Mdm2 allowed for the presence of all domains of Mdm2; expressed in transfected cells
In words: counter screen in control Mdm2(C464A)-luciferase cell line. It counts as cell-based. The procedure:
The Mdm2-luciferase cell line was seeded at 7,500 cells per well, in 384-well white plates (PerkinElmer, Waltham, Mass., Cat. No. 6007688), in 27 μl of media (DMEM with FBS and P/S). Assay plates with cells were incubated at 37° C. overnight to allow cells to adhere. After 24 hours, 2 μl from the ‘mother’ plate (4 mg/ml) was transferred to a ‘daughter plate’ containing 148 μl media in order to dilute the compound 1:75. Next, 3 μl from each well of the ‘daughter plates’ was added to triplicate assay plates for a final concentration of 5.33 μg/ml. Assay plates were incubated at 37° C. for 2 hours. Then the cells were lysed with the addition of 30 μl of luminescence buffer (PerkinElmer, Cat. No. 6016989), and the plates were incubated at room temperature for 30 minutes before being analyzed on a Victor3 Plate Reader (PerkinElmer) for luminescence. Compounds that caused an increase in luminescence greater than 30% were re-ordered for further analysis. […] This was determined by comparing the negative control, no treatment, to the positive control, 10 μM MG132. […]
The above experiments verified that the cell lines could function as a valid system to screen for Mdm2 E3 ligase inhibitors. […] All compounds were incubated with the Mdm2-luciferase cell line for 2 hours, after which relative luminescence was detected by the addition of a luminesence buffer. […]
On the technique in general: Counterscreens check selectivity or assay interference.

The subject of the next assay is MdmX. In words: etoposide-induced MdmX degradation in MCF7 cells (Western blot). It counts as cell-based, human. As to conditions: etoposide 30 μg/ml, 16 hours. As to the method: Cells were plated in 384-well format and treated with MG132 (2 hours) or cycloheximide (30 minutes). Steadylite luminescence buffer (PerkinElmer) was added and the relative luminescence levels determined on a Victor3 Plate Reader. Each graph represents the median of 5 replicates normalized to a no treatment control, and one standard deviation is shown. […] The graphs and EC50 values were determined using Graphpad PRISM®. […] U2OS, RKO, and HCT116 cells (p53 wild-type) were incubated with 5 μg/ml (14 μM) of MEL23, 5 μg/ml (15 μM) of MEL24, or 10 μM of MG132 for 6 hours. Cells were lysed and analyzed by Western blotting using anti-Mdm2, anti-p53, and anti-eIF4E antibodies. NT indicates a no treatment control. […] MCF7 cells (p53 wild-type) were incubated with 30 μg/ml (51 μM) etoposide alone or in combination with 50 μM AlIn or 5 μg/ml (14 μM) MEL23, or 5 μg/ml (15 μM) MEL24 for 16 hours. Cells were lysed and analyzed by Western blotting using anti-MDMX and anti-actin antibodies.
Cells were seeded and treated with the indicated compound(s). Cells were lysed after each time point in a buffer of 50 mM TrisHCl pH 7.5, 200 mM NaCl, 0.5% NP-40, and 1 complete mini EDTA-free protease inhibitor cocktail tablet per 10 mL of buffer (Roche, Cat. No. 8360170). Protein content was quantified using a Biorad protein assay reagent (Bio-Rad Laboratories, Hercules, Calif., Cat. No. 500-0006). SDS sample buffer was added to the samples, and the mixture was boiled for 5 minutes. Equal amounts of protein were resolved on a 1D SDS-PAGE gel. Following separation proteins were transferred to nitrocellulose membrane, blocked with 5% milk, and then incubated with primary antibody overnight at 4° C. The membrane was incubated with secondary-HRP antibody for 45 minutes at room temperature and developed with SuperSignal West Pico Substrate (Pierce, Rockford, Ill., Cat. No. 34080).
On the technique in general: In western blotting, separated proteins are transferred to a membrane and probed.

The test system of assay [2] is RKO, RKO E6, H1299 and MEF's. The assay can be described thus: cell cycle analysis by propidium iodide flow cytometry. The assay is classed as cell-based. As to conditions: two days incubation. The procedure:
RKO, RKO E6, H1299 and MEF's were seeded and treated with designated concentration of MEL23. After two days incubation, cells were harvested and fixed in ethanol, followed by staining in a solution of 7.3 μM RNaseA and 98.7 μM propidium iodide (Sigma, St. Louis, Mo.). The samples were read on a FACS Calibur flow cytometer (BD Biosciences, San Jose, Calif.) and analyzed with CeliQuest software (BD Biosciences).
A general note: Flow cytometry measures light scatter and fluorescence of single cells or particles in a stream.

The source of these data is US20120135089A1, “E3 LIGASE INHIBITORS” (priority 2009, published 2012).

Structures are written as SMILES.

T1 sequence (Q00987 whole entry C464A, the tested form may be a part): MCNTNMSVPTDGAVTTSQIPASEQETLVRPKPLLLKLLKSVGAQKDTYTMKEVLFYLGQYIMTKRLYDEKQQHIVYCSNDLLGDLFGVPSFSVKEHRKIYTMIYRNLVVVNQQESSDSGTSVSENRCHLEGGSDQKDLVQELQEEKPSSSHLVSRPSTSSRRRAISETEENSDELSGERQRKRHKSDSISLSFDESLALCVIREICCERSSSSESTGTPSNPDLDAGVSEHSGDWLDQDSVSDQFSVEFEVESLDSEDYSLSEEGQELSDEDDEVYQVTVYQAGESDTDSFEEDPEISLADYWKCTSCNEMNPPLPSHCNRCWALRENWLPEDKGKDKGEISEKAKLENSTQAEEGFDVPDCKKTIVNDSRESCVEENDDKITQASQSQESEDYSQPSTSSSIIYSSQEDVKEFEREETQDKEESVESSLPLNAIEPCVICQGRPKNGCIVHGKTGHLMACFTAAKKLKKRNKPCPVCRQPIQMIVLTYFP

As for `CCCCn1c(=O)[nH]c(O)c(C2NCCc3c2[nH]c2ccccc32)c1=O` (stereo not drawn) [MEL23], in assay [1], the “luminescence of the control Mdm2(C464A)-luciferase cell line” value was “did not significantly affect”. Moreover, the “etoposide-induced MdmX degradation” value in the assay on MdmX is listed as “degradation could be prevented”. Moreover, the cell cycle entry in assay [2] is given as “causes G2 cell cycle arrest”.
Taken in the same sequence, the figures for `Cn1c(O)c(C2NCCc3c2[nH]c2ccccc32)c(=O)n(C)c1=O` (stereo not drawn) [MEL24] were “did not significantly affect”, “degradation could be prevented” and “promotes G2 cell cycle arrest”.
